{"source": "PubChem BioAssay AID1918941", "about": "(Molecular Pharmacology Branch, DTP, NCI, 2023)", "note": "Several values for one entry are separate records, joined by “and”; a condition that tells them apart may be missing. Equal entries are not always repeated."}
{"tested_on": "SW 1271 complex spheroids, viability", "assay": "Anticancer human tumor SW 1271 cell line growth inhibition [LSD1];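 note: spheroids exposed to agents for 7 days before luminescence read; 100% = DMSO vehicle control viability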", "conditions": "compound 0.1 µM; stronger effect = lower value", "from_the_text": "(§1) Multicellular complex tumor spheroid response to LSD1 Inhibitor Iadademstat in combination with a variety of drugs and investigational agents in selected tumor cell lines\n(§2) The current study was undertaken to assess response to LSD1 inhibitors in combination with standard-of-care drugs and investigational agents in solid tumor complex spheroid models as well as in the K-562 leukemia. Complex spheroids include a stromal component modeled by human endothelial cells (HUVEC) and fibroblasts modeled by human mesenchymal stem cells (MSCs). The concentration ranges selected for each drug and investigational agent were based upon clinically achievable concentrations if the clinical Cmax of the agent was known.\n(§3) Compounds. The drugs and investigational agents used in this study are listed on Table 1. All of the agents used, including staurosporine (NSC755774) and gemcitabine (NSC613327), were obtained from the Developmental Therapeutics Program, NCI. FDA-approved anticancer drugs are available from the NCI at http://dtp.nci.nih.gov/branches/dscb/oncology_drugset_explanation.html. Drugs and investigational agents were >95% pure by proton nuclear magnetic resonance (NMR) and liquid chromatography/mass spectrometry (LC/MS). Stock solutions were prepared at 400x in DMSO, stored at -70 degrees C, and diluted in fresh medium prior to their use. The final concentration of DMSO in cell culture wells never exceeded 0.25% (v/v). The FDA-approved anticancer drug set is available from the Developmental Therapeutics Program at https://dtp.cancer.gov/organization/dscb/obtaining/available_plates.htm. All drugs and investigational agents were tested over a range starting from a high concentration at or near the clinical Cmax and decreasing in half-log increments. If the clinical Cmax for an agent had not been determined, the highest concentration tested was 10 microM.\n(§4) Cell Lines. The patient-derived cancer cell (PDC) lines: 292921-168-R-J2-PDC, K24384-001-R-PDC, and 521955-158-R2-J5-PDC pancreatic carcinomas, 556581-035-R-J1 ovarian carcinoma, 324938-238-R-J1-PDC, 855422-203-R-J1-PDC and 883617-216-R-J1-PDC urothelial bladder carcinomas, 743489-274-T-PDC renal cell carcinoma, 138582-R-J1 Merkel cell tumor, K60290-347-R-J1 and K57222-313-R-J1-PDC glioblastomas, 653999-131-R-J2-PDC, LG0703-F948-PDC, and 349418-098-R-PDC non-small cell lung carcinomas, 885512-296-R-J2-PDC, 171881-019-R-J1-PDC breast carcinomas and 186277-243-T-J2-PDC and 233499-124-R-J2-PDC colon carcinomas were obtained from the NCI Patient-Derived Models Repository (PDMR, https://pdmr.cancer.gov). The established cell lines NCI/ADR-RES (RRID:CVCL_14520 and OVCAR-5 (RRID:CVCL_1628) ovarian carcinomas, 786-O (RRID:CVCL_1051) and A498 (RRID:CVCL_A498) renal cell carcinoma, NCI-H211 (ATCC, cat. CRL-5824; RRID:CVCL_1529), NCI-H196 (ATCC, cat. CRL-5823, RRID:CVCL_1509), SW 1271 (ATCC, cat. CRL-2177, RRID:CVCL_1716) and NCI-H1876 (ATCC, cat. CRL-5902, RRID:CVCL_1503) small cell lung carcinomas, MDA-MB-231 (RRID:CVCL_0062) and MDA-MB-468 (RRID:CVCL_0419)breast carcinomas (10-12). Pooled donor human umbilical vein endothelial cells (HUVEC, Lonza, cat. CC-2519) and human mesenchymal stem cells (hMSC, Lonza, cat. PT-2501) were purchased from Lonza (Walkersville, MD).\n(§5) Cell Culture. All cells were maintained in an incubator at 37 degrees C and 5% CO2 with 95% humidity. The PDC lines were cultured according to standard operating procedures established by the NCI PDMR (https://pdmr.cancer.gov). Briefly all PDCs were thawed and cultured in Matrigel-coated flasks prepared with a working solution of 1X Ham's F-12 nutrient mix, without supplementation (Invitrogen, Waltham, MA, cat. 11765054), 100 U/mL penicillin-streptomycin (Invitrogen, cat. 15140122), and 2.5% Matrigel (Corning Inc., Corning, NY, cat. 354248) for the first three passages. […]"}
{"smiles": "COc1ccc([C@@H](O)c2cc(-c3ncnc4cc(N5CCOCC5)ccc34)c(F)cc2Cl)nn1", "viability, T/C": "74.7% and 91.9%"}
{"smiles": "Cn1ncnc1C1c2n[nH]c(=O)c3cc(F)cc(c23)NC1c1ccc(F)cc1", "note": "(stereo not drawn)", "viability, T/C": "91.7% and 99.5%"}
{"smiles": "NC1CC1c1ccc(-c2cccc(O)c2)cc1", "note": "(stereo not drawn)", "viability, T/C": "86.2%"}
{"smiles": "Nc1ncn(C2CC(O)C(CO)O2)c(=O)n1", "note": "(stereo not drawn)", "viability, T/C": "86.9% and 93.3%"}
{"smiles": "O=C(C=Cn1cnc(-c2cc(C(F)(F)F)cc(C(F)(F)F)c2)n1)NNc1cnccn1", "viability, T/C": "45.3% and 51.4%"}
{"smiles": "O=C(c1cc(Cc2n[nH]c(=O)c3ccccc23)ccc1F)N1CCN(C(=O)C2CC2)CC1", "viability, T/C": "85.2% and 85.3%"}
{"tested_on": "SW 1271 complex spheroids, viability", "assay": "Anticancer human tumor SW 1271 cell line growth inhibition [LSD1];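 note: spheroids exposed to agents for 7 days before luminescence read; 100% = DMSO vehicle control viability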", "conditions": "compound 0.3 µM; stronger effect = lower value", "from_the_text": "as §1, §2, §3, §4, §5"}
{"smiles": "CCN(c1cc(-c2ccc(CN3CCOCC3)cc2)cc(C(=O)NCc2c(C)cc(C)[nH]c2=O)c1C)C1CCOCC1", "viability, T/C": "103% and 98.9%"}
{"smiles": "CCc1c2c(nc3ccc(O)cc13)-c1cc3c(c(=O)n1C2)COC(=O)[C@]3(O)CC", "viability, T/C": "3.93% and 13.3%"}
{"smiles": "COc1cc(C2c3cc4c(cc3C(OC3OC5COC(C)OC5C(O)C3O)C3COC(=O)C23)OCO4)cc(OC)c1O", "note": "(stereo not drawn)", "viability, T/C": "83.9% and 64.4%"}
{"smiles": "NS(=O)(=O)OCC1CC(n2ccc3c(NC4CCc5ccccc54)ncnc32)CC1O", "note": "(stereo not drawn)", "viability, T/C": "89.7% and 67.7%"}
{"smiles": "Nc1ccccc1NC(=O)c1ccc(CNC(=O)OCc2cccnc2)cc1", "viability, T/C": "35.6% and 29.2%"}
{"smiles": "Nc1ccn(C2OC(CO)C(O)C2(F)F)c(=O)n1", "note": "(stereo not drawn)", "viability, T/C": "64.6% and 74.8%"}
{"smiles": "Nc1ncn(C2CC(O)C(CO)S2)c(=O)n1", "note": "(stereo not drawn)", "viability, T/C": "88.5% and 71.2%"}
{"smiles": "O=C(C=Cc1cccc(S(=O)(=O)Nc2ccccc2)c1)NO", "viability, T/C": "19.1% and 23.3%"}
{"tested_on": "SW 1271 complex spheroids, viability", "assay": "Anticancer human tumor SW 1271 cell line growth inhibition [LSD1];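 note: spheroids exposed to agents for 7 days before luminescence read; 100% = DMSO vehicle control viability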", "conditions": "compound 0.316 µM; stronger effect = lower value", "from_the_text": "as §1, §2, §3, §4, §5"}
{"smiles": "CC(C)c1c(-c2ccccc2)nc2c(C#N)c[nH]n2c1=O", "viability, T/C": "83.4% and 100%"}
{"smiles": "CC1(C)CCC(CN2CCN(c3ccc(C(=O)NS(=O)(=O)c4ccc(NCC5CCOCC5)c([N+](=O)[O-])c4)c(Oc4cnc5[nH]ccc5c4)c3)CC2)=C(c2ccc(Cl)cc2)C1", "viability, T/C": "87.7% and 98.3%"}
{"smiles": "CC1COCCN1c1cc(-c2ccnn2C)c2ccnc(-c3ccn[nH]3)c2n1", "note": "(stereo not drawn)", "viability, T/C": "48.2% and 43.4%"}
{"smiles": "CC1COCCN1c1cc(C2(S(C)(=N)=O)CC2)nc(-c2ccnc3[nH]ccc23)n1", "note": "(stereo not drawn)", "viability, T/C": "88.2% and 78.9%"}
{"smiles": "COc1cc(Nc2ncc3c(n2)-c2ccc(Cl)cc2C(c2c(F)cccc2OC)=NC3)ccc1C(=O)O", "viability, T/C": "42.5% and 36.9%"}
{"smiles": "COc1ccc([C@@H](O)c2cc(-c3ncnc4cc(N5CCOCC5)ccc34)c(F)cc2Cl)nn1", "viability, T/C": "54.5% and 64%"}
{"smiles": "NC1CCC(NC2CC2c2ccccc2)CC1", "note": "(stereo not drawn)", "viability, T/C": "77.1% and 85.3%"}
{"smiles": "Nc1ncn(C2CC(O)C(CO)O2)c(=O)n1", "note": "(stereo not drawn)", "viability, T/C": "83% and 80.3%"}
{"smiles": "O=C(C=Cn1cnc(-c2cc(C(F)(F)F)cc(C(F)(F)F)c2)n1)NNc1cnccn1", "viability, T/C": "47.8% and 40.4%"}
{"smiles": "O=C(c1cc(Cc2n[nH]c(=O)c3ccccc23)ccc1F)N1CCN(C(=O)C2CC2)CC1", "viability, T/C": "81.4% and 76.1%"}
{"tested_on": "SW 1271 complex spheroids, viability", "assay": "Anticancer human tumor SW 1271 cell line growth inhibition [LSD1];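 note: spheroids exposed to agents for 7 days before luminescence read; 100% = DMSO vehicle control viability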", "conditions": "compound 0.949 µM; stronger effect = lower value", "from_the_text": "as §1, §2, §3, §4, §5"}
{"smiles": "CCN(c1cc(-c2ccc(CN3CCOCC3)cc2)cc(C(=O)NCc2c(C)cc(C)[nH]c2=O)c1C)C1CCOCC1", "viability, T/C": "78.3% and 82.5%"}
{"smiles": "COc1cc(C2c3cc4c(cc3C(OC3OC5COC(C)OC5C(O)C3O)C3COC(=O)C23)OCO4)cc(OC)c1O", "note": "(stereo not drawn)", "viability, T/C": "62.5% and 66.3%"}
{"smiles": "NS(=O)(=O)OCC1CC(n2ccc3c(NC4CCc5ccccc54)ncnc32)CC1O", "note": "(stereo not drawn)", "viability, T/C": "73.1% and 74.3%"}
{"smiles": "Nc1ccccc1NC(=O)c1ccc(CNC(=O)OCc2cccnc2)cc1", "viability, T/C": "10.2% and 7.11%"}
{"smiles": "O=C(C=Cc1cccc(S(=O)(=O)Nc2ccccc2)c1)NO", "viability, T/C": "9.01% and 12.3%"}
{"tested_on": "SW 1271 complex spheroids, viability", "assay": "Anticancer human tumor SW 1271 cell line growth inhibition [LSD1]", "conditions": "compound 1 µM; stronger effect = lower value", "from_the_text": "as §1, §2, §3, §4, §5"}
{"smiles": "CC(C)c1c(-c2ccccc2)nc2c(C#N)c[nH]n2c1=O", "viability, T/C": "89.3% and 88.1%"}
{"smiles": "CC1(C)CCC(CN2CCN(c3ccc(C(=O)NS(=O)(=O)c4ccc(NCC5CCOCC5)c([N+](=O)[O-])c4)c(Oc4cnc5[nH]ccc5c4)c3)CC2)=C(c2ccc(Cl)cc2)C1", "viability, T/C": "101% and 102%"}
{"smiles": "CC1COCCN1c1cc(-c2ccnn2C)c2ccnc(-c3ccn[nH]3)c2n1", "note": "(stereo not drawn)", "viability, T/C": "30.1% and 28.4%"}
{"smiles": "CC1COCCN1c1cc(C2(S(C)(=N)=O)CC2)nc(-c2ccnc3[nH]ccc23)n1", "note": "(stereo not drawn)", "viability, T/C": "79% and 65.3%"}
{"smiles": "COc1cc(Nc2ncc3c(n2)-c2ccc(Cl)cc2C(c2c(F)cccc2OC)=NC3)ccc1C(=O)O", "viability, T/C": "14.1% and 15.6%"}
{"smiles": "COc1ccc([C@@H](O)c2cc(-c3ncnc4cc(N5CCOCC5)ccc34)c(F)cc2Cl)nn1", "viability, T/C": "40.4% and 45.4%"}
{"smiles": "Nc1ncn(C2CC(O)C(CO)O2)c(=O)n1", "note": "(stereo not drawn)", "viability, T/C": "86.7% and 89.8%"}
{"smiles": "O=C(C=Cn1cnc(-c2cc(C(F)(F)F)cc(C(F)(F)F)c2)n1)NNc1cnccn1", "viability, T/C": "21.6% and 16.6%"}
{"smiles": "O=C(c1cc(Cc2n[nH]c(=O)c3ccccc23)ccc1F)N1CCN(C(=O)C2CC2)CC1", "viability, T/C": "81.5% and 85.4%"}
